The values below come from patent US20240158446A1, “CYCLIC COMPOUND HAVING SELECTIVE INHIBITORY ACTION ON KRAS OVER HRAS AND NRAS” (CHUGAI SEIYAKU KABUSHIKI KAISHA, priority 2021, published 2024).

Each structure is given as a SMILES string.

Experiment [1] concerns the target GDP-bound NRAS wild-type protein (Homo sapiens, UniProt P01111). As to the kind of experiment: Binding to NRAS by surface plasmon resonance (SPR), Single Cycle Kinetics. The following applies: SPR, GDP-bound NRAS wild-type protein vs GDP-bound KRAS wild-type protein.
For experiment [2], the target named is GDP-bound HRAS wild-type protein (Homo sapiens, UniProt P01112). The experiment can be described thus: Binding to HRAS by surface plasmon resonance (SPR), Single Cycle Kinetics. The note with it: SPR, GDP-bound HRAS wild-type protein vs GDP-bound KRAS wild-type protein. A general note: Surface plasmon resonance follows binding to a sensor surface in real time, without labels.
GDP-bound HRAS wild-type protein, sequence (P01112 whole entry): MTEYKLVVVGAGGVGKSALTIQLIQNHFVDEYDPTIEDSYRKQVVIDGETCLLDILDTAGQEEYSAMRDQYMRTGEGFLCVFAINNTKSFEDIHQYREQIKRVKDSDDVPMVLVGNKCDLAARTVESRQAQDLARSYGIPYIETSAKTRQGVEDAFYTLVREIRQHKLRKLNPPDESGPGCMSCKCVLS

GDP-bound NRAS wild-type protein, sequence (P01111 whole entry): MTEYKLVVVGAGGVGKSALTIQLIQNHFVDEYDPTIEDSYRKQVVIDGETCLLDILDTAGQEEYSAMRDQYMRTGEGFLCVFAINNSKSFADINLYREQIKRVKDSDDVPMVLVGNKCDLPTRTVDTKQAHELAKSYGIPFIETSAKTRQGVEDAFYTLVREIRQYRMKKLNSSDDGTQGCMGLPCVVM

On to `CC[C@H](C)[C@@H]1NC(=O)[C@H](CC(C)C)N(C)C(=O)C[C@@H](C(=O)N2CCOCC2)N(C)C(=O)[C@H](C2CCCC2)N(C)C(=O)C2(CCC2)NC(=O)[C@@H]2C[C@@H](OCC(F)F)CN2C(=O)[C@H](CCc2cc(F)c(C(F)(F)F)c(F)c2)NC(=O)CN(C)C(=O)[C@H](Cc2ccc(C(F)(F)F)cc2)N2CCCCC[C@@H](C2=O)N(C)C(=O)CN(C)C1=O` [PP1006], for which, in experiment [1], the “NRAS/KRAS (ratio of KD value for NRAS to KD value for KRAS)” value was “B (a compound having 3 or more and less than 10 is denoted as B)”. In addition, in experiment [2], the “HRAS/KRAS (ratio of KD value for HRAS to KD value for KRAS)” value is “B (a compound having 3 or more and less than 10 is denoted as B)”.
In the case of `CC[C@H](C)[C@@H]1NC(=O)[C@H](CC(C)C)N(C)C(=O)C[C@@H](C(=O)N2CCOCC2)N(C)C(=O)[C@H](C2CCCC2)N(C)C(=O)C2(CCC2)NC(=O)[C@@H]2[C@@H](OCCC(F)(F)F)CCN2C(=O)[C@H](CCc2cc(F)c(C(F)(F)F)c(F)c2)NC(=O)CN(C)C(=O)[C@H](Cc2ccc(C(F)(F)F)cc2)N2CCCCC[C@@H](C2=O)N(C)C(=O)CN(C)C1=O` [PP1008], the “NRAS/KRAS (ratio of KD value for NRAS to KD value for KRAS)” value in experiment [1] was “A (a compound having 10 or more and less than 20 is denoted as A)”. Also, the “HRAS/KRAS (ratio of KD value for HRAS to KD value for KRAS)” value in experiment [2] is “B (a compound having 3 or more and less than 10 is denoted as B)”.
In the case of `CCCCO[C@H]1CCN2C(=O)[C@H](CCc3cc(F)c(C(F)(F)F)c(F)c3)NC(=O)CN(C)C(=O)[C@H](Cc3ccc(C(F)(F)F)cc3)N3CCCCC[C@@H](C3=O)N(C)C(=O)CN(C)C(=O)[C@H]([C@@H](C)CC)NC(=O)[C@H](CC(C)C)N(C)C(=O)C[C@@H](C(=O)N3CCOCC3)N(C)C(=O)[C@H](C3CCCC3)N(C)C(=O)C3(CCC3)NC(=O)[C@H]12` [PP1009], the “NRAS/KRAS (ratio of KD value for NRAS to KD value for KRAS)” value in experiment [1] is “B (a compound having 3 or more and less than 10 is denoted as B)”. Further, the “HRAS/KRAS (ratio of KD value for HRAS to KD value for KRAS)” value in experiment [2] was “B (a compound having 3 or more and less than 10 is denoted as B)”.
On to `CC[C@H](C)[C@@H]1NC(=O)[C@H](CC(C)C)N(C)C(=O)C[C@@H](C(=O)N2CCOCC2)N(C)C(=O)[C@H](C2CCCC2)N(C)C(=O)C2(CCC2)NC(=O)[C@@H]2[C@@H](OCC3CC3)CCN2C(=O)[C@H](CCc2cc(F)c(C(F)(F)F)c(F)c2)NC(=O)CN(C)C(=O)[C@H](Cc2ccc(C(F)(F)F)cc2)N2CCCCC[C@@H](C2=O)N(C)C(=O)CN(C)C1=O` [PP1010], for which the “NRAS/KRAS (ratio of KD value for NRAS to KD value for KRAS)” value in experiment [1] is “B (a compound having 3 or more and less than 10 is denoted as B)”. Besides, the “HRAS/KRAS (ratio of KD value for HRAS to KD value for KRAS)” value in experiment [2] is “B (a compound having 3 or more and less than 10 is denoted as B)”.
`CCCCO[C@@H]1C[C@H]2C(=O)NC3(CCC3)C(=O)N(C)[C@@H](C3CCCC3)C(=O)N(C)[C@H](C(=O)N3CCOCC3)CC(=O)N(C)[C@@H](CC(C)C)C(=O)N[C@@H]([C@@H](C)CC)C(=O)N(C)CC(=O)N(C)[C@H]3CCCCN(C3=O)[C@@H](Cc3ccc(C(F)(F)F)cc3)C(=O)N(C)CC(=O)N[C@@H](CCc3cc(F)c(C(F)(F)F)c(F)c3)C(=O)N2C1` [PP1013]: the “NRAS/KRAS (ratio of KD value for NRAS to KD value for KRAS)” value in experiment [1] was “C (A compound having a KD ratio of 0.1 or more and less than 3 is denoted as C)”. In experiment [2], the “HRAS/KRAS (ratio of KD value for HRAS to KD value for KRAS)” value was “C (A compound having a KD ratio of 0.1 or more and less than 3 is denoted as C)”.
As for `CC[C@H](C)[C@@H]1NC(=O)[C@H](CC(C)C)N(C)C(=O)C[C@@H](C(=O)N2CCOCC2)N(C)C(=O)[C@H](C2CCCC2)N(C)C(=O)C2(CCC2)NC(=O)[C@@H]2C[C@@H](OCC3CC3)CN2C(=O)[C@H](CCc2cc(F)c(C(F)(F)F)c(F)c2)NC(=O)CN(C)C(=O)[C@H](Cc2ccc(C(F)(F)F)cc2)N2CCCC[C@@H](C2=O)N(C)C(=O)CN(C)C1=O` [PP1014], in experiment [1], the “NRAS/KRAS (ratio of KD value for NRAS to KD value for KRAS)” value is “C (A compound having a KD ratio of 0.1 or more and less than 3 is denoted as C)”. For the same molecule, the “HRAS/KRAS (ratio of KD value for HRAS to KD value for KRAS)” value in experiment [2] was “C (A compound having a KD ratio of 0.1 or more and less than 3 is denoted as C)”.
Regarding `CCO[C@@H]1C[C@H]2C(=O)NC3(CCC3)C(=O)N(C)[C@@H](C3CCCC3)C(=O)N(C)[C@H](C(=O)N(C)C)CC(=O)N(C)[C@@H](CC(C)C)C(=O)N[C@@H]([C@@H](C)CC)C(=O)N(C)CC(=O)N(C)[C@H]3C[C@@H](C)CCN(C3=O)[C@@H](Cc3ccc(C(F)(F)F)cc3)C(=O)N(C)CC(=O)N[C@@H](CCc3cc(F)c(C(F)(F)F)c(F)c3)C(=O)N2C1` [PP1018], the “NRAS/KRAS (ratio of KD value for NRAS to KD value for KRAS)” value in experiment [1] is “C (A compound having a KD ratio of 0.1 or more and less than 3 is denoted as C)”. Further, in experiment [2], the “HRAS/KRAS (ratio of KD value for HRAS to KD value for KRAS)” value is “B (a compound having 3 or more and less than 10 is denoted as B)”.
In the case of `CCO[C@@H]1C[C@H]2C(=O)NC3(CCC3)C(=O)N(C)[C@@H](C3CCCC3)C(=O)N(C)[C@H](C(=O)N3CCOCC3)CC(=O)N(C)[C@@H](CC(C)C)C(=O)N[C@@H]([C@@H](C)CC)C(=O)N3CC[C@H]3C(=O)N(C)[C@H]3C[C@@H](C)CCN(C3=O)[C@@H](Cc3ccc(C(F)(F)F)cc3)C(=O)N(C)CC(=O)N[C@@H](CCc3cc(F)c(C(F)(F)F)c(F)c3)C(=O)N2C1` [PP1026], the “NRAS/KRAS (ratio of KD value for NRAS to KD value for KRAS)” value in experiment [1] was “B (a compound having 3 or more and less than 10 is denoted as B)”. Moreover, the “HRAS/KRAS (ratio of KD value for HRAS to KD value for KRAS)” value in experiment [2] was “B (a compound having 3 or more and less than 10 is denoted as B)”.
In the case of `CCO[C@@H]1C[C@H]2C(=O)NC3(CCC3)C(=O)N(C)[C@@H](C3CCCC3)C(=O)N(C)[C@H](C(=O)N3CCOCC3)CC(=O)N(CC)[C@@H](CC(C)C)C(=O)N[C@@H]([C@@H](C)CC)C(=O)N(C)CC(=O)N(C)[C@H]3C[C@@H](C)CCN(C3=O)[C@@H](Cc3ccc(C(F)(F)F)cc3)C(=O)N(C)CC(=O)N[C@@H](CCc3cc(F)c(C(F)(F)F)c(F)c3)C(=O)N2C1` [PP1030], the “NRAS/KRAS (ratio of KD value for NRAS to KD value for KRAS)” value in experiment [1] was “B (a compound having 3 or more and less than 10 is denoted as B)”. In addition, the “HRAS/KRAS (ratio of KD value for HRAS to KD value for KRAS)” value in experiment [2] was “B (a compound having 3 or more and less than 10 is denoted as B)”.
For `CCO[C@@H]1C[C@H]2C(=O)NC3(CCC3)C(=O)N(C)[C@@H](C3CCCC3)C(=O)N(C)[C@H](C(=O)N(C)C)CC(=O)N(C)[C@@H](CC(C)C)C(=O)N[C@@H]([C@@H](C)CC)C(=O)N(C)CC(=O)N(C)[C@H]3CC(C)=CCN(C3=O)[C@@H](Cc3ccc(C(F)(F)F)cc3)C(=O)N(C)CC(=O)N[C@@H](CCc3cc(F)c(C(F)(F)F)c(F)c3)C(=O)N2C1` [PP1032], the “NRAS/KRAS (ratio of KD value for NRAS to KD value for KRAS)” value in experiment [1] is “C (A compound having a KD ratio of 0.1 or more and less than 3 is denoted as C)”. The “HRAS/KRAS (ratio of KD value for HRAS to KD value for KRAS)” value in experiment [2] is “C (A compound having a KD ratio of 0.1 or more and less than 3 is denoted as C)”.
Regarding `CCO[C@@H]1C[C@H]2C(=O)NC3(CCC3)C(=O)N(C)[C@@H](C3CCCC3)C(=O)N(C)[C@H](C(=O)N3CCOCC3)CC(=O)N(C)[C@@H](CC(C)C)C(=O)N[C@@H]([C@@H](C)CC)C(=O)N(C)CC(=O)N(C)[C@H]3CC(C)=CCN(C3=O)[C@@H](Cc3ccc(C(F)(F)F)cc3)C(=O)N(C)CC(=O)N[C@@H](CCc3cc(F)c(C(F)(F)F)c(F)c3)C(=O)N2C1` [PP1039], the “NRAS/KRAS (ratio of KD value for NRAS to KD value for KRAS)” value in experiment [1] is “C (A compound having a KD ratio of 0.1 or more and less than 3 is denoted as C)”. For the same molecule, in experiment [2], the “HRAS/KRAS (ratio of KD value for HRAS to KD value for KRAS)” value was “C (A compound having a KD ratio of 0.1 or more and less than 3 is denoted as C)”.
Consider `CCO[C@@H]1C[C@H]2C(=O)NC3(CCC3)C(=O)N(C)[C@@H](C3CCCC3)C(=O)N(C)[C@H](C(=O)N(C)C)CC(=O)N(C)[C@@H](CC)C(=O)N[C@@H]([C@@H](C)CC)C(=O)N(C)CC(=O)N(C)[C@H]3CC(C)=C(C)CN(C3=O)[C@@H](Cc3ccc(C(F)(F)F)cc3)C(=O)N(C)CC(=O)N[C@@H](CCc3cc(F)c(C(F)(F)F)c(F)c3)C(=O)N2C1` [PP1048], for which the “NRAS/KRAS (ratio of KD value for NRAS to KD value for KRAS)” value in experiment [1] was “C (A compound having a KD ratio of 0.1 or more and less than 3 is denoted as C)”. The “HRAS/KRAS (ratio of KD value for HRAS to KD value for KRAS)” value in experiment [2] was “C (A compound having a KD ratio of 0.1 or more and less than 3 is denoted as C)”.
`CCO[C@@H]1C[C@H]2C(=O)NC3(CCC3)C(=O)N(C)[C@@H](C3CCCC3)C(=O)N(C)[C@H](C(=O)N(C)C)CC(=O)N(C)[C@@H](CC)C(=O)N[C@@H]([C@@H](C)CC)C(=O)N3CCC[C@H]3C(=O)N(C)[C@H]3C/C=C\CCN(C3=O)[C@@H](Cc3ccc(C(F)(F)F)cc3)C(=O)N(C)CC(=O)N[C@@H](CCc3cc(F)c(C(F)(F)F)c(F)c3)C(=O)N2C1` [PP1056]: the “NRAS/KRAS (ratio of KD value for NRAS to KD value for KRAS)” value in experiment [1] was “A (a compound having 10 or more and less than 20 is denoted as A)”. For the same molecule, the “HRAS/KRAS (ratio of KD value for HRAS to KD value for KRAS)” value in experiment [2] is “A (a compound having 10 or more and less than 20 is denoted as A)”.
As for `CCO[C@@H]1C[C@H]2C(=O)NC3(CCC3)C(=O)N(C)[C@@H](C3CCCC3)C(=O)N(C)[C@H](C(=O)N(C)C)CC(=O)N(C)[C@@H](CC)C(=O)N[C@@H]([C@@H](C)CC)C(=O)N3CCCC[C@H]3C(=O)N(C)[C@H]3C/C=C\CCN(C3=O)[C@@H](Cc3ccc(C(F)(F)F)cc3)C(=O)N(C)CC(=O)N[C@@H](CCc3cc(F)c(C(F)(F)F)c(F)c3)C(=O)N2C1` [PP1058], the “NRAS/KRAS (ratio of KD value for NRAS to KD value for KRAS)” value in experiment [1] is “A (a compound having 10 or more and less than 20 is denoted as A)”. In addition, in experiment [2], the “HRAS/KRAS (ratio of KD value for HRAS to KD value for KRAS)” value was “B (a compound having 3 or more and less than 10 is denoted as B)”.
In the case of `CCO[C@@H]1C[C@H]2C(=O)NC3(CCC3)C(=O)N(C)[C@@H](C3CCCC3)C(=O)N(C)[C@H](C(=O)N(C)C)CC(=O)N(C)[C@@H](CC)C(=O)N[C@@H]([C@@H](C)CC)C(=O)N3CC[C@@H]3C(=O)N(C)[C@H]3C/C=C\CCN(C3=O)[C@@H](Cc3ccc(C(F)(F)F)cc3)C(=O)N(C)CC(=O)N[C@@H](CCc3cc(F)c(C(F)(F)F)c(F)c3)C(=O)N2C1` [PP1064], in experiment [1], the “NRAS/KRAS (ratio of KD value for NRAS to KD value for KRAS)” value is “A (a compound having 10 or more and less than 20 is denoted as A)”. For the same molecule, the “HRAS/KRAS (ratio of KD value for HRAS to KD value for KRAS)” value in experiment [2] is “A (a compound having 10 or more and less than 20 is denoted as A)”.
